What was measured:
[1] = test system: CD-1 mice; assay: hEPO expression in serum after IV lipid nanoparticles with hEPO mRNA, CD-1 mice; assay type: in vivo; conditions: LNP with DSPC, cholesterol, Compound I; for Mean 6 hr hEPO Concentration: serum 6 hours after injection
Protocol: To assess potency of expression and metabolic stability of lipids of the disclosure, hepatocyte protein expression (hEPO) was measured following administration to mice of a nanoparticle of the disclosure.
(§1) Lipid nanoparticles including DSPC as a phospholipid, cholesterol as a structural lipid, Compound I as a PEG lipid, an ionizable amino lipid of Formula (II), and an mRNA encoding hEPO were intravenously administered to CD-1 mice. The concentration of hEPO in serum was tested at 6 hours after injection.

[2] = test system: Sprague Dawley rats; assay: Parent lipid remaining in liver tissue at 24 h, rats; assay type: in vivo; conditions: rat
[3] = test system: Sprague Dawley rats; assay: NPI-Luciferase expression, ex vivo liver bioluminescence, Sprague Dawley rats; assay type: in vivo; conditions: rat, IV
Protocol: (§2) To further assess potency of expression and metabolic stability of lipids of the disclosure, expression of luciferase was measured following administration to rodents of a nanoparticle of the disclosure comprising an mRNA containing luciferase.
as §1, with “luciferase” for “hEPO”, “mice and Sprague Dawley rats.” for “mice.”, “level” for “concentration”, “expression” for “hEPO in serum”, “tested via bioluminescence in the liver ex vivo” for “tested”

[4] = test system: CD-1 mice; assay: NPI-Luciferase expression, ex vivo liver bioluminescence, CD-1 mice; assay type: in vivo; conditions: mouse, IV
Protocol: as §2
as §1, with “luciferase” for “hEPO”, “mice and Sprague Dawley rats.” for “mice.”, “level” for “concentration”, “expression” for “hEPO in serum”, “tested via bioluminescence in the liver ex vivo” for “tested”

[5] = test system: CD-1 mice; assay: Parent lipid remaining in liver at 24 h, CD-1 mice (hEPO mRNA LNPs); assay type: in vivo; conditions: for Approx. Percent Total Dose of Parent Lipid Remaining at 24 h: calculation assumes a 25 g mouse with a 1.5 g liver
[6] = test system: Sprague Dawley rats; assay: Tolerability in rats: reporter antibody construct expression (ELISA) and liver toxicity; assay type: in vivo; conditions: IV
Protocol: To assess tolerability of the lipids of the disclosure, expression of a reporter antibody construct induced by sample formulations was assessed in rats.
Lipid nanoparticles including DSPC as a phospholipid, cholesterol as a structural lipid, Compound I as a PEG lipid, an ionizable amino lipid of Formula (II), and an mRNA encoding a reporter antibody construct were intravenously administered to Sprague Dawley rats. […] For the formulations tested, high levels of the reporter antibody were measured with minimal signs of liver toxicity (Table 15).

[7] = test system: mice; assay: Residual lipid levels in the liver at 24 h, mice (luciferase mRNA LNPs); assay type: in vivo
[8] = test system: mice; assay: Luciferase expression, total whole body flux, mice; assay type: in vivo
Protocol: as §2
Lipid nanoparticles including DSPC as a phospholipid, cholesterol as a structural lipid, Compound I as a PEG lipid, an ionizable amino lipid of Formula (II), and an mRNA encoding luciferase were intravenously administered to CD-1 mice and Sprague Dawley rats. […]

[9] = test system: Sprague Dawley rats; assay: hEPO expression in serum after IV lipid nanoparticles with hEPO mRNA, Sprague Dawley rats; assay type: in vivo; conditions: serum 6 hours after injection
Protocol: To further assess potency of expression and metabolic stability of lipids of the disclosure, hepatocyte protein expression (hEPO) was measured following administration to rats of a nanoparticle of the disclosure.
as §1, with “Sprague Dawley rats.” for “CD-1 mice.”

[10] = test system: cynomolgus monkeys; assay: Luciferase level in livers ex vivo (ELISA), cynomolgus monkeys; conditions: IV
Protocol: To the assess potency of expression and metabolic stability of lipids of the disclosure in different species, the expression of an mRNA was measured following administration to non-human primates of a nanoparticle of the disclosure containing the mRNA.
as §1, with “luciferase” for “hEPO”, “cynomolgus monkeys.” for “CD-1 mice.”, “level” for “concentration”, “livers ex vivo” for “serum”, “measured via ELISA” for “tested”

CCCCCC(CCCCC)CCOC(=O)CCCCCCCN(CCO)CCCCCCCC(=O)OCCC(CCCCC)CCCCC [Compound 25]
hEPO AUC [1]: 1.07E+07
Mean 6 hr hEPO Concentration [1]: 591942 mIU/mL
Approx. Percent Total Dose of Parent Lipid Remaining at 24 h [2]: <0.1%^
Mean 6 h ex vivo Liver NPI-Luciferase Total Flux [3]: 4068000000 photons/second
Mean 6 h ex vivo Liver NPI-Luciferase Total Flux [4]: 336800000 photons/second
Parent Lipid Remaining (nmol/g liver tissue) at 24 h [5]: 0.1 ± 0.04 nmol/g liver tissue
Approx. Percent Total Dose of Parent Lipid Remaining at 24 h [5]: <0.1%
Mean Reporter Antibody Construct Concentration [6]: 948617 ng/mL

CCCCCCCCC(CCCCCCCC)OC(=O)CCCCCCCN(CCO)CCCCCCCC(=O)OCCC(CCCC)CCCCCC (stereo not drawn) [Compound 7]
% Lipid Remaining @ 24 h [7]: <1%
hEPO AUC [1]: 2.13E+07
Mean 6 hr hEPO Concentration [1]: 1355957 mIU/mL
Total Whole Body Flux @ 6 h [8]: 6.09E+10 p/s
Parent Lipid Remaining (nmol/g liver tissue) at 24 h [5]: 0.3 ± 0.2 nmol/g liver tissue
Approx. Percent Total Dose of Parent Lipid Remaining at 24 h [5]: 0.2%

CCCCC(CCCC)CCOC(=O)CCCCCCCN(CCCCCCCC(=O)OCCC(CCCC)CCCC)CCCNc1c(NC)c(=O)c1=O [Compound 55]
Mean 6 hr hEPO Concentration [9]: 161760 mIU/mL
hEPO AUC [1]: 1.99E+07
Mean 6 hr hEPO Concentration [1]: 1332073 mIU/mL
Parent Lipid Remaining (nmol/g liver tissue) at 24 h [5]: 3 ± 0.6 nmol/g liver tissue
Approx. Percent Total Dose of Parent Lipid Remaining at 24 h [5]: 3%

CCCCCC(CCCCC)OC(=O)CCCCCCCN(CCCCCCCC(=O)OCCC(CCCC)CCCC)CCCNc1c(NC)c(=O)c1=O [Compound 61]
Mean 6 hr hEPO Concentration [9]: 362569 mIU/mL
hEPO AUC [1]: 1.44E+07
Mean 6 hr hEPO Concentration [1]: 1020791 mIU/mL
Parent Lipid Remaining (nmol/g liver tissue) at 24 h [5]: 5.1 ± 0.8 nmol/g liver tissue
Approx. Percent Total Dose of Parent Lipid Remaining at 24 h [5]: 6 ± 0.3%

CCCCCCCCC(CCCCCCCC)OC(=O)CCCCCCCN(CCO)CCCCCCCC(=O)OCC(CCC)CCCCCCC (stereo not drawn) [Compound 8]
% Lipid Remaining @ 24 h [7]: <1%
Total Whole Body Flux @ 6 h [8]: 3.82E+10 p/s

CCCCCCCCC(CCCCCCCC)OC(=O)CCCCCCCN(CCO)CCCCCCCC(=O)OCCC(CCCCCC)C(C)C (stereo not drawn) [Compound 12]
% Lipid Remaining @ 24 h [7]: <1%
Total Whole Body Flux @ 6 h [8]: 2.39E+10 p/s

CCCCCC(CCCCC)CCOC(=O)CCCCCCCN(CCCCCCCC(=O)OCCC(CCCC)CCCC)CCCNc1c(NC)c(=O)c1=O [Compound 54, 3-Butylheptyl 8-((3-((2-(methylamino)-3,4-dioxocyclobut-1-en-1-yl)amino)propyl)(8-oxo-8-((3-pentyloctyl)oxy)octyl)amino)octanoate]
Mean 6 hr hEPO Concentration [9]: 476742 mIU/mL
hEPO AUC [1]: 1.97E+07
Mean 6 hr hEPO Concentration [1]: 647775 mIU/mL
Parent Lipid Remaining (nmol/g liver tissue) at 24 h [5]: 12 ± 1 nmol/g liver tissue
Approx. Percent Total Dose of Parent Lipid Remaining at 24 h [5]: 12%
Mean 6 h NPI-Luciferase Concentration [10]: 693 ng/g

CCCCCCCCC(CCCCCCCC)OC(=O)CCCCCCCN(CCO)CCCCCCCC(=O)OCCC(CCCC)CCCC [Compound 22, 3-Butylheptyl 8-((8-(heptadecan-9-yloxy)-8-oxooctyl)(2-hydroxyethyl)amino)octanoate]
hEPO AUC [1]: 2.03E+07
Mean 6 hr hEPO Concentration [1]: 1264530 mIU/mL
Approx. Percent Total Dose of Parent Lipid Remaining at 24 h [2]: <0.1%^
Mean 6 h ex vivo Liver NPI-Luciferase Total Flux [3]: 2227666667 photons/second
Mean 6 h ex vivo Liver NPI-Luciferase Total Flux [4]: 300960000 photons/second
Parent Lipid Remaining (nmol/g liver tissue) at 24 h [5]: <0.1 nmol/g liver tissue
Approx. Percent Total Dose of Parent Lipid Remaining at 24 h [5]: <0.1%
Mean Reporter Antibody Construct Concentration [6]: 1113642 ng/mL
Mean 6 h NPI-Luciferase Concentration [10]: 1322 ng/g

CCCCCCCCC(CCCCCCCC)OC(=O)CCCCCCCN(CCCCCCCC(=O)OCCC(CCCC)CCCC)CCCNc1c(NC)c(=O)c1=O [Compound 27, 3-Butylheptyl 8-((8-(heptadecan-9-yloxy)-8-oxooctyl)(3-((2-(methylamino)-3,4-dioxocyclobut-1-en-1-yl)amino)propyl)amino)octanoate]
Mean 6 hr hEPO Concentration [9]: 664431 mIU/mL
hEPO AUC [1]: 2.10E+07
Mean 6 hr hEPO Concentration [1]: 1316011 mIU/mL
Approx. Percent Total Dose of Parent Lipid Remaining at 24 h [2]: 28%
Mean 6 h ex vivo Liver NPI-Luciferase Total Flux [3]: 1215666667 photons/second
Mean 6 h ex vivo Liver NPI-Luciferase Total Flux [4]: 357720000 photons/second
Parent Lipid Remaining (nmol/g liver tissue) at 24 h [5]: 27 ± 4 nmol/g liver tissue
Approx. Percent Total Dose of Parent Lipid Remaining at 24 h [5]: 28%
Mean Reporter Antibody Construct Concentration [6]: 833698 ng/mL
Mean 6 h NPI-Luciferase Concentration [10]: 878 ng/g

CCCCCCCCC(CCCCCCCC)OC(=O)CCCCCCCN(CCCCCCCC(=O)OCC(CCCC)CCCCCCC)CCCNc1c(NC)c(=O)c1=O (stereo not drawn) [Compound 10]
% Lipid Remaining @ 24 h [7]: 67 ± 7%
Total Whole Body Flux @ 6 h [8]: 4.6E+09 p/s

CCCCCC(CCCCC)CCOC(=O)CCCCCCCN(CCCCCCCC(=O)OCCC(CCCCC)CCCCC)CCCNc1c(NC)c(=O)c1=O [Compound 30, Bis(3-pentyloctyl) 8,8′-((3-((2-(methylamino)-3,4-dioxocyclobut-1-en-1-yl)amino)propyl)azanediyl)dioctanoate]
Mean 6 hr hEPO Concentration [9]: 688780 mIU/mL
hEPO AUC [1]: 2.40E+07
Mean 6 hr hEPO Concentration [1]: 1592050 mIU/mL
Approx. Percent Total Dose of Parent Lipid Remaining at 24 h [2]: 25%
Mean 6 h ex vivo Liver NPI-Luciferase Total Flux [3]: 963633333.3 photons/second
Mean 6 h ex vivo Liver NPI-Luciferase Total Flux [4]: 299800000 photons/second
Parent Lipid Remaining (nmol/g liver tissue) at 24 h [5]: 25 ± 4 nmol/g liver tissue
Approx. Percent Total Dose of Parent Lipid Remaining at 24 h [5]: 26%
Mean 6 h NPI-Luciferase Concentration [10]: 782 ng/g

CCCCCCC(CCCCCC)OC(=O)CCCCCCCN(CCCCCCCC(=O)OCCC(CCC)CCC)CCCNc1c(NC)c(=O)c1=O [Compound 64]
Mean 6 hr hEPO Concentration [9]: 161146 mIU/mL
hEPO AUC [1]: 2.43E+07
Mean 6 hr hEPO Concentration [1]: 1760015 mIU/mL
Parent Lipid Remaining (nmol/g liver tissue) at 24 h [5]: 4.9 ± 0.9 nmol/g liver tissue
Approx. Percent Total Dose of Parent Lipid Remaining at 24 h [5]: 6 ± 0.8%

— patent US20240189449A1, “LIPID NANOPARTICLES AND POLYNUCLEOTIDES ENCODING ORNITHINE TRANSCARBAMYLASE FOR THE TREATMENT OF ORNITHINE TRANSCARBAMYLASE DEFICIENCY” (ModernaTX, Inc., priority 2021, published 2024)
